The values below come from patent US12324802B2, “Modulators of cystic fibrosis transmembrane conductance regulator” (Vertex Pharmaceuticals Incorporated, priority 2020, dated 2025).

T1 sequence (P13569 with tags, fused parts or gaps DEL508-508): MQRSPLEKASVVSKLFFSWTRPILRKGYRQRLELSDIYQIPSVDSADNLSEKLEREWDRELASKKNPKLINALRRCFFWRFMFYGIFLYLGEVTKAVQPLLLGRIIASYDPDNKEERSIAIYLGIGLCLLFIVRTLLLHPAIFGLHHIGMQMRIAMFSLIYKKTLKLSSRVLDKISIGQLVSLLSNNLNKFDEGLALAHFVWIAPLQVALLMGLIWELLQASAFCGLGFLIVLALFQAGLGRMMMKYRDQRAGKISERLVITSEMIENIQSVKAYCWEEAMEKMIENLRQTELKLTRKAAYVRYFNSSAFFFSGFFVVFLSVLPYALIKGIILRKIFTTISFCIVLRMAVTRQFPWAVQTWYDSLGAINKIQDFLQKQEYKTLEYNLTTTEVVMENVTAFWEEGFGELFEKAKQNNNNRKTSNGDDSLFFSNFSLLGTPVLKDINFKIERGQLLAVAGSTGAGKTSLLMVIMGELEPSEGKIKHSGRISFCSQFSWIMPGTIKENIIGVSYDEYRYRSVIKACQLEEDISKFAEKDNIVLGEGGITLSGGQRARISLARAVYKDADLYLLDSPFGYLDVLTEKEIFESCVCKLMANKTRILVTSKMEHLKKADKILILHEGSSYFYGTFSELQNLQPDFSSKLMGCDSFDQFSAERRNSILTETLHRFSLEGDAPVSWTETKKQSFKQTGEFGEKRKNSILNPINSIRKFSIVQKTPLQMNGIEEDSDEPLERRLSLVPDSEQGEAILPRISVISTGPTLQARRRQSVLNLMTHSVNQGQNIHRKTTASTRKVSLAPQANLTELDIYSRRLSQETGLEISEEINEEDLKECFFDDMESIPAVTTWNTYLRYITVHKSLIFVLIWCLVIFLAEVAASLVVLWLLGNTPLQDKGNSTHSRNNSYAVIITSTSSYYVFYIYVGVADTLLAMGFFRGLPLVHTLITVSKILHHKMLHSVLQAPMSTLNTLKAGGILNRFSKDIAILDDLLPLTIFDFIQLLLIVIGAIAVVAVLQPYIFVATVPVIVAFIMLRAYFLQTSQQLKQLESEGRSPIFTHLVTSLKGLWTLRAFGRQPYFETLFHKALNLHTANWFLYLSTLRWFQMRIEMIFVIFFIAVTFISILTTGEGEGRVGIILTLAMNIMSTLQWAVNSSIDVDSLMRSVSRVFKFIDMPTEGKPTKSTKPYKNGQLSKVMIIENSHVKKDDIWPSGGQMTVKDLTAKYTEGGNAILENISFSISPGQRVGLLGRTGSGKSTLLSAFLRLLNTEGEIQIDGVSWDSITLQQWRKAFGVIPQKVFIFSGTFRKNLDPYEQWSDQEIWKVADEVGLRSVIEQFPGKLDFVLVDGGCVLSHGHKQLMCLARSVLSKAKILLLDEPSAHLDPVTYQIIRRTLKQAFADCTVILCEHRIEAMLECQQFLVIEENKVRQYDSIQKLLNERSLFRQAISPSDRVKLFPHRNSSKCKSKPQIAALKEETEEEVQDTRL

The assay has as its target T1, CFTR (F508del/MF-HBE cells) (Homo sapiens, UniProt P13569, DEL508-508).
T1 construct: human bronchial epithelial (HBE) cells derived from CF subjects heterozygous for F508del and a minimal function CFTR mutation; endogenous in cells; host or cells: primary human bronchial epithelial cells from CF subjects (F508del/MF genotype)
Briefly: Ussing chamber assay of CFTR-mediated short-circuit currents (identification of potentiator compounds). The class given is cell-based. The note with it: CFTR-mediated ISC in F508del/MF-HBE cells; incubated 18-24 hours at 37° C. with 10 μM (14S)-8-[3-(2-{dispiro[2.0.2.1]heptan-7-yl}ethoxy)-1H-pyrazol-1-yl]-...-2,2,4-trione, 20% human serum. In short, it runs like this: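 Short-circuit current was voltage-clamped at 0 mV and 37 °C in pH 7.4 HEPES buffers, with amiloride (30 μM) on the apical side. The CFTR component was defined as forskolin (20 μM) peak minus residual current after BPO/GlyH-101/CFTRinh-172 at 20 μM each. Cells had been pretreated 18–24 h with potentiator concentrations and 10 μM corrector in 20% human serum, kept throughout the measurement.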
Take `Nc1cc(C(F)(F)F)c2nc1-c1nnc(o1)[C@@](O)(C(F)(F)F)CCCCCC(c1ccc(F)cc1)N2` (single isomer, unassigned) [Compound 182]: the 50% effective concentration (EC50) was under 500 nM. Next, `Nc1cc(C(F)(F)F)c2nc1-c1nnc(o1)[C@@](O)(C(F)(F)F)CCCCCC(c1ncco1)N2` (single isomer, unassigned) [Compound 184]: under 500 nM; `CC1(C)CCC(O)CC[C@](O)(C(F)(F)F)C2=NN=C(O2)c2nc(c(C(F)(F)F)cc2N)N1` (single isomer, unassigned) [Compound 189]: over 1000 nM.

Regarding `CC1(C)CCC(O)CC[C@](O)(C(F)(F)F)C2=NN=C(O2)c2nc(c(C(F)(F)F)cc2N)N1` (single isomer, unassigned) [Compound 190], the EC50 was under 500 nM. Next, `Nc1cc(C(F)(F)F)c2nc1-c1nnc(o1)[C@@](O)(C(F)(F)F)CCCCCC(C1CC1)N2` (single isomer, unassigned) [Compound 191]: under 500 nM; `Nc1cc(C(F)(F)F)c2nc1-c1nnc(o1)[C@@](O)(C(F)(F)F)CCCCCC(C1CC1)N2` (single isomer, unassigned) [Compound 192]: under 500 nM; `CC1(C)CCCCC(O)C(O)(C(F)(F)F)C2=NN=C(O2)c2nc(c(C(F)(F)F)cc2N)N1` (single isomer, unassigned) [Compound 194, 17-amino-12,12-dimethyl-6,15-bis(trifluoromethyl)-19-oxa-3,4,13,18-tetrazatricyclo[12.3.1.12,5]nonadeca-1(18),2,4,14,16-pentaene-6,7-diol]: under 500 nM.

As for `CC1(C)CCCCC(O)C(O)(C(F)(F)F)C2=NN=C(O2)c2nc(c(C(F)(F)F)cc2N)N1` (single isomer, unassigned) [Compound 195, 17-amino-12,12-dimethyl-6,15-bis(trifluoromethyl)-19-oxa-3,4,13,18-tetrazatricyclo[12.3.1.12,5]nonadeca-1(18),2,4,14,16-pentaene-6,7-diol], the EC50 was over 1000 nM.

Take `CC1(C)CCCOCC(O)(C(F)(F)F)C2=NN=C(O2)c2nc(c(C(F)(F)F)cc2N)N1` (single isomer, unassigned) [Compound 197, 17-amino-12,12-dimethyl-6,15-bis(trifluoromethyl)-8,19-dioxa-3,4,13,18-tetrazatricyclo[12.3.1.12,5]nonadeca-1(18),2,4,14,16-pentaen-6-ol]: the concentration giving a half-maximal response (EC50) is under 500 nM. Next, `CC1(C)COCCCC(O)(C(F)(F)F)C2=NN=C(O2)c2nc(c(C(F)(F)F)cc2N)N1` (single isomer, unassigned) [Compound 199, 17-amino-12,12-dimethyl-6,15-bis(trifluoromethyl)-10,19-dioxa-3,4,13,18-tetrazatricyclo[12.3.1.12,5]nonadeca-1(18),2,4,14,16-pentaen-6-ol]: under 500 nM; `Nc1cc(C(F)(F)F)c2nc1-c1nnc(o1)[C@@](O)(C(F)(F)F)CCCCCC(c1ncccn1)N2` (single isomer, unassigned) [Compound 201]: under 500 nM. For `CC1(C)Nc2nc(c(N)cc2C(F)(F)F)C2=NN=C(O2)[C@@](O)(C(F)(F)F)CCCCC1O` (single isomer, unassigned) [Compound 203], the EC50 is under 500 nM.

As to `CC1(C)Nc2nc(c(N)cc2C(F)(F)F)C2=NN=C(O2)[C@@](O)(C(F)(F)F)CCCCC1O` (single isomer, unassigned) [Compound 204], the EC50 was under 500 nM. As to `Nc1cc(C(F)(F)F)c2nc1-c1nnc(o1)[C@@](O)(C(F)(F)F)CCCCCC1(CCOC1)N2` (single isomer, unassigned) [Compound 207], the concentration giving a half-maximal response (EC50) is under 500 nM.

`Nc1cc(C(F)(F)F)c2nc1-c1nnc(o1)[C@@](O)(C(F)(F)F)CCCCCC1(CCOC1)N2` (single isomer, unassigned) [Compound 208]: the EC50 is under 500 nM.

For `Nc1cc(C(F)(F)F)c2nc1-c1nnc(o1)[C@@](O)(C(F)(F)F)CCCCC[C@@H]1CCCN21` [Compound 4, (6R,12R)-20-amino-6,18-bis(trifluoromethyl)-22-oxa-3,4,16,21-tetraazatetracyclo[15.3.1.12,5.012,16]docosa-1(21),2,4,17,19-pentaen-6-ol], the EC50 was under 500 nM. Next, `Nc1cc(C(F)(F)F)c2nc1-c1nnc(o1)[C@](O)(C(F)(F)F)CCCCC[C@@H]1CCCN21` [Compound 5, (6S,12R)-20-amino-6,18-bis(trifluoromethyl)-22-oxa-3,4,16,21-tetraazatetracyclo[15.3.1.12,5.012,16]docosa-1(21),2,4,17,19-pentaen-6-ol]: over 1000 nM; `Nc1cc(C(F)(F)F)c2nc1-c1nnc(o1)C(O)(C(F)(F)F)CCCCC1CCN2C1` (stereo not shown) [Compound 8, 16-amino-10,18-bis(trifluoromethyl)-20-oxa-2,12,13,19-tetraazatetracyclo[13.3.1.12,5.111,14]henicosa-1(19),11,13,15,17-pentaen-10-ol]: under 500 nM. As to `Nc1cc(C(F)(F)F)c2nc1-c1nnc(o1)C(O)(C(F)(F)F)CCCCC1CCN2C1` (stereo not shown) [Compound 9, 16-amino-10,18-bis(trifluoromethyl)-20-oxa-2,12,13,19-tetraazatetracyclo[13.3.1.12,5.111,14]henicosa-1(19),11,13,15,17-pentaen-10-ol], the EC50 is under 500 nM.

In the case of `Nc1cc(C(F)(F)F)c2nc1-c1nnc(o1)/C(C(F)(F)F)=C\CCCC[C@@H]1CCCN21` [Compound 10, (6E,12R)-6,18-bis(trifluoromethyl)-22-oxa-3,4,16,21-tetraazatetracyclo[15.3.1.12,5.012,16]docosa-1(21),2,4,6,17,19-hexaen-20-amine], the EC50 was over 1000 nM.

For `CNc1cc(C(F)(F)F)c2nc1-c1nnc(o1)[C@@](O)(C(F)(F)F)CCCCC[C@@H]1CCCN21` [Compound 13, (6R,12R)-20-(methylamino)-6,18-bis(trifluoromethyl)-22-oxa-3,4,16,21-tetraazatetracyclo[15.3.1.12,5.012,16]docosa-1(21),2,4,17,19-pentaen-6-ol], the EC50 is under 500 nM.

`CCNc1cc(C(F)(F)F)c2nc1-c1nnc(o1)[C@@](O)(C(F)(F)F)CCCCC[C@@H]1CCCN21` [Compound 14, (6R,12R)-20-(ethylamino)-6,18-bis(trifluoromethyl)-22-oxa-3,4,16,21-tetraazatetracyclo[15.3.1.12,5.012,16]docosa-1(21),2,4,17,19-pentaen-6-ol]: the 50% effective concentration (EC50) is under 500 nM. On to `CNc1cc(C(F)(F)F)c2nc1-c1nnc(o1)[C@](O)(C(F)(F)F)CCCCC[C@@H]1CCCN21` [Compound 15, (6S,12R)-20-(methylamino)-6,18-bis(trifluoromethyl)-22-oxa-3,4,16,21-tetraazatetracyclo[15.3.1.12,5.012,16]docosa-1(21),2,4,17,19-pentaen-6-ol], for which the EC50 was over 1000 nM.

For the compound `CCNc1cc(C(F)(F)F)c2nc1-c1nnc(o1)[C@](O)(C(F)(F)F)CCCCC[C@@H]1CCCN21` [Compound 16, (6S,12R)-20-(ethylamino)-6,18-bis(trifluoromethyl)-22-oxa-3,4,16,21-tetraazatetracyclo[15.3.1.12,5.012,16]docosa-1(21),2,4,17,19-pentaen-6-ol], the EC50 is over 1000 nM. As to `Nc1cc(C(F)(F)F)c2nc1-c1nnc(o1)C(O)(C(F)(F)F)CCCCC1CCCN21` (stereo not shown) [Compound 17, 19-amino-6,17-bis(trifluoromethyl)-21-oxa-3,4,15,20-tetraazatetracyclo[14.3.1.12,5.011,15]henicosa-1(20),2,4,16,18-pentaen-6-ol], the EC50 is under 500 nM.
